According to patent publication US12036262B2, “Edible plant-derived nanoparticles for regulation of gut microbiota” (University of Louisville Research Foundation, Inc., priority 2017, dated 2024):

Key:
LGG = assay: Bacterial translocation to peripheral blood and liver; type: in vivo; details: DSS-treated SPF and germ-free mice, compared with LGG alone
Description: Bacterial Translocation. Bacterial translocation from the murine gut to peripheral blood and liver was determined at the indicated times presented in the relevant figures after oral bacterial administration. Fifty microliters of anticoagulant blood were cultured on MRS agar for 48 h at 37° C. in an anaerobic chamber. Liver tissue samples were homogenized in 0.5% Triton X-100/PBS, and 100 μl of the homogenates were cultured on MRS agar plates. After 48 hours of incubation, CFUs were counted, and the results are expressed as number of bacteria detected/mL of blood or gram of liver.

SpaC = assay: Immunogold labeling of LGG pili and TEM; type: cell-based, Lactobacillus rhamnosus; details: compared with PBS or scrambled miRNA
Description: Immunogold Labeling of LGG Pili and TEM. To visualize LGG pili via transmission electron microscopy (TEM), LGG cultures were grown overnight (OD600<1.0) and washed once with PBS. Formvar-carbon-coated copper grids (Electron Microscopy Sciences, Hatfield, Pennsylvania, United States of America) first were floated for 1 hour on droplets of the diluted LGG at 10^7/mL in PBS, washed several times with 0.02 M glycine in PBS, and then treated with a blocking solution of 1% bovine serum albumin (BSA) in PBS. The grids were then floated for 1 hour on droplets of anti-SpaC serum (1:100) in blocking solution. After a wash with 0.1% BSA in PBS, the grids were incubated for 20 minutes with protein A-conjugated 10-nm-diameter gold particles (Cytodiagnostics, Burlington, Ontario, Canada) diluted 1:55 in blocking solution. After one wash in PBS, the grids were fixed with 1% glutaraldehyde, washed with distilled water, and then stained with 1% ammonium molybdate on the surface of the EM grid. After excess ammonium molybdate was removed from the grid, images were visualized using a Thermo-Fisher TEM Tecnai Spirit at 80 kV, and images were collected with an AMT XR60 digital camera.

[1] = system: SpaC fragment with ath-miR167a binding site; assay: SpaC-pGFPuv GFP reporter in E. coli (FACS); type: cell-based
Description: Plasmid Construction and Mutagenesis. The SpaC fragment (339-800, LGG RS02140) spanning the sequences of the potential target (710-717) of GELN ath-miR167a was obtained by PCR with cDNA from LGG RNA. PCR was performed using a Bio-Rad thermal cycler T100. The 462-bp PCR product amplified by the primer pair SpaC-pGFPuv-F: 5′-[…]-3′ (SEQ ID NO: 1) and SpaC-pGFPuv-R: 5′-[…]-3′ (SEQ ID NO: 2) was ligated into the Sphl and Xbal restriction enzyme sites of a pGFPuv vector (Takara Bio/Clontech, Mountain View, California, United States of America) to obtain a green fluorescent protein (GFP) expression reporter. SpaC-pGFPuv fused with the SpaC gene fragment, which can be expressed in prokaryotic cells. To generate mutants of SpaC, the oligonucleotide primers SpaCMut-F, 5′-[…] […]
Flow Cytometry. […] Data were acquired using a BD FACSCalibur flow cytometer (BD Biosciences, San Jose, California, United States of America) and analyzed using FlowJo software (Tree Star Inc., Ashland, Oregon, United States of America). To visualize bacteria stained with PKH26/67 and transformed with SpaC-pGFPuv plasmid, the PKH26/67-positive and GFP-positive bacteria were detected by flow cytometry using a BD FACSCalibur flow cytometer (BD Biosciences, San Jose, California, United States of America), and data were analyzed using FlowJo software (Tree Star Inc., Ashland, Oregon, United States of America).

ath-miR167a: GELN miRNA, SEQ ID NO: 9 (UGAAGCUGCCAGCAUGAUCUA; expressed or natural sequence)
LGG migration into bloodstream and liver (LGG): significantly reduced LGG translocation into the peripheral blood | SpaC protein on pili of LGG (TEM) (SpaC): much less SpaC protein could be detected on pili | GFP expression with mutation that disrupted the binding site [1]: entirely restored GFP expression
